{"source": "patent US11332771B2", "about": "“Serum-free cell culture medium” (Regeneron Pharmaceuticals, Inc., priority 2013, dated 2022)", "key": {"[1]": {"system": "recombinant antibody producing cell line derived from CHO K1 cells", "experiment": "Cell doubling time in logarithmic growth phase, seed train cultures passaged over 14 days", "format": "cell-based, Chinese hamster", "conditions": "ornithine.HCl 100 mg/L, with or without putrescine.2HCl 115 mg/L", "experimental": "The doubling time of a recombinant antibody producing cell line derived from CHO K1 cells in logarithmic growth phase was determined under various cell culture media conditions. Seed train cultures were passaged at 36.5° C. in 250 mL shaker flasks over a period of 14 days in each of three separate media: Medium 1, Medium 2, and Medium 2 containing soy hydrolysate (Medium 2+ Soy). Aliquots of 1 mL were removed from each condition on Day 0 and at the time of seed train passage (every 2 or 3 days), and viable cell counts were conducted using trypan blue exclusion on a CDV™ instrument (Nova Biomedical)."}, "[2]": {"system": "recombinant antibody producing cell line derived from CHO K1", "experiment": "Antibody titer in Medium 3 with various amounts of ornithine.HCl, 50 mL TubeSpin Bioreactors", "format": "cell-based, Chinese hamster", "conditions": "Medium 3, three days, all three levels of ornithine supplementation, N=3", "description": "The results are depicted in Table 6."}, "CHO-K1 derived cell line": {"system": "CHO-K1 derived cell line", "conditions": "for Average seven-day antibody titer: 100 mg/L ornithine.HCl, with or without 115 mg/L putrescine.2HCl", "quoted_text": "We examined the expression and secretion of recombinant IgG by a CHO-K1 derived cell line. In this experiment, the average antibody titer was determined at day seven in culture under various media formats."}}, "note": "Structures can show the parent of a compound that is named as a salt. Where two headings read alike, the source gives them in different places.", "data": [{"smiles": "NCCC[C@H](N)C(=O)O", "note": "[Ornithine, L-ornithine.HCl]", "values": [{"measurement": "Cell doubling time", "setting": "[1]; Medium 1", "result": 23, "unit": "h"}, {"measurement": "Cell doubling time", "setting": "[1]; Medium 2 + Soy", "result": 20.5, "unit": "h"}, {"measurement": "Cell doubling time", "setting": "[1]; Medium 2", "result": 21, "unit": "h"}, {"measurement": "Improvement of antibody titer on the average", "setting": "[2]", "result": "more than 50%"}, {"measurement": "Average seven-day antibody titer", "setting": "CHO-K1 derived cell line; Medium 1", "result": 0.94, "unit": "g/L"}, {"measurement": "Average seven-day antibody titer", "setting": "CHO-K1 derived cell line; Medium 2 + Soy", "result": 0.98, "unit": "g/L"}, {"measurement": "Average seven-day antibody titer", "setting": "CHO-K1 derived cell line; Medium 2", "result": 0.65, "unit": "g/L"}, {"measurement": "Increase in protein titer", "setting": "CHO-K1 derived cell line; day seven, in all cases (Medium 1, Medium 2, Medium 2+ Soy), versus low putrescine 0.4 mg/L", "result": "at least about two-fold"}]}]}
